Reference: patent US4181716A, “Antibiotics” (Beecham Group Limited, priority 1974, dated 1980)
Structures can show the parent of a compound that is named as a salt.

Columns and labels:
[1] = system: Klebsiella aerogenes; assay: assay of activity in units against culture filtrate; type: cell-based
Method: The MM 4550 (Complex) was eluted from the resin with 5% NaCl in 50% aqueous methanol. […] The MM 4550 (Complex) content of culture filtrate was arbitrarily set at 8 units/ml. The eluted fractions from the column were assayed using an antibacterial diffusion method against Klebsiella aerogenes and the activity units were calculated by reference to a standard line prepared by plotting zone diameter against units/ml. for various dilutions of culture filtrate (i.e. the culture filtrate was used as a standard).
The material produced above was arbitrarily assigned an activity of 340 l/ml. Assays were determined as described in Description 3.

[2] = system: Bacillus subtilis A; assay: MIC, microtitre method (Table 10); type: cell-based; details: heavy inoculum, 1/100 overnight broth
Method: (§1) Partially purified MM 4550Adi-sodium salt (0.55 g) was chromatographed on a cellulose column (4.5 cm×29 cm; Whatman CC31 cellulose) eluted with n-propanol/water (4:1 v/v) at a flow rate of 2.5 ml./min. The first 135 ml of eluate was discarded and then 15 ml fractions collected.
(§2) ANTIBACTERIAL ACTIVITY OF THE DI-SODIUM
(§3) SALT OF MM 4550A ([…]-HEAVY
(§4) INOCULUM, 1/100 OVERNIGHT BROTH

[3] = system: Enterobacter cloacae N1; assay: MIC, microtitre method (Table 10); type: cell-based; details: heavy inoculum, 1/100 overnight broth
Method: as §1, §2, §3, §4

[4] = system: Kleb. aerogenes A; assay: MIC, microtitre method (Table 10); type: cell-based; details: heavy inoculum, 1/100 overnight broth
Method: as §1, §2, §3, §4

[5] = system: Proteus mirabilis 13; assay: MIC, microtitre method (Table 10); type: cell-based; details: heavy inoculum, 1/100 overnight broth
Method: as §1, §2, §3, §4

[6] = system: Proteus vulgaris WO 90; assay: MIC, microtitre method (Table 10); type: cell-based; details: heavy inoculum, 1/100 overnight broth
Method: as §1, §2, §3, §4

[7] = system: Prov. stuartii; assay: MIC, microtitre method (Table 10); type: cell-based; details: heavy inoculum, 1/100 overnight broth
Method: as §1, §2, §3, §4

[8] = system: Ps. aeruginosa A; assay: MIC, microtitre method (Table 10); type: cell-based; details: heavy inoculum, 1/100 overnight broth
Method: as §1, §2, §3, §4

[9] = system: Salmonella typhimurium CT 10; assay: MIC, microtitre method (Table 10); type: cell-based; details: heavy inoculum, 1/100 overnight broth
Method: as §1, §2, §3, §4

[10] = system: Serratia marcescens US 39; assay: MIC, microtitre method (Table 10); type: cell-based; details: heavy inoculum, 1/100 overnight broth
Method: as §1, §2, §3, §4

[11] = system: Shigella sonnei; assay: MIC, microtitre method (Table 10); type: cell-based; details: heavy inoculum, 1/100 overnight broth
Method: as §1, §2, §3, §4

[12] = system: Staph. aureus Oxford; assay: MIC, microtitre method (Table 10); type: cell-based; details: heavy inoculum, 1/100 overnight broth
Method: as §1, §2, §3, §4

[13] = system: Staph. aureus Russell; assay: MIC, microtitre method (Table 10); type: cell-based; details: heavy inoculum, 1/100 overnight broth
Method: as §1, §2, §3, §4

[14] = system: Strep. faecalis; assay: MIC, microtitre method (Table 10); type: cell-based; details: heavy inoculum, 1/100 overnight broth
Method: as §1, §2, §3, §4

[15] = system: Staphylococcus aureus, Bacillus subtilis, Escherichia coli, Klebsiella aerogenes, Proteus mirabilis, Salmonella typhi and Pseudomonas aeruginosa; assay: antibacterial activity (property list); type: cell-based, bacteria; details: sodium salt
[16] = system: Escherichia coli, Klebsiella aerogenes, Proteus mirabilis, Proteus morganii and Staphylococcus aureus Russell; assay: synergism with ampicillin (property list); type: cell-based, bacteria; details: sodium salt
[17] = system: Bacillus subtilis; assay: antibacterial activity by bioautography (Table 4); type: cell-based; details: TLC with cellulose, butanol/isopropyl alcohol/water 7:7:6 v/v
Source text: (§5) Analysis of the preparation by thin layer chromatography on cellulose (Eastman Kodak "Chromagram" sheets) developed with n-butanol; isopropanol:water (7:7:6) separated two active substances, one with an approximate Rf of 0.54 which was designated MM 4550 A and one with an approximate Rf of 0.72 which was designated MM 13902.
(§6) 13902 AS DETERMINED BY BIOAUTOGRAPHY (TLC
(§7) WITH CELLULOSE AND BUTONAL/ISOPROPYL
(§8) ALCOHOL/WATER 7:7:6 v/v)

[18] = system: Enterobacter aerogenes; assay: antibacterial activity by bioautography (Table 4); type: cell-based; details: TLC with cellulose, butanol/isopropyl alcohol/water 7:7:6 v/v
Source text: as §5, §6, §7, §8

[19] = system: Escherichia coli 10418; assay: antibacterial activity by bioautography (Table 4); type: cell-based; details: TLC with cellulose, butanol/isopropyl alcohol/water 7:7:6 v/v
Source text: as §5, §6, §7, §8

[20] = system: Escherichia coli 311; assay: antibacterial activity by bioautography (Table 4); type: cell-based; details: TLC with cellulose, butanol/isopropyl alcohol/water 7:7:6 v/v
Source text: as §5, §6, §7, §8

[21] = system: Klebsiella aerogenes; assay: antibacterial activity by bioautography (Table 4); type: cell-based; details: TLC with cellulose, butanol/isopropyl alcohol/water 7:7:6 v/v
Source text: as §5, §6, §7, §8

[22] = system: Proteus mirabilis; assay: antibacterial activity by bioautography (Table 4); type: cell-based; details: TLC with cellulose, butanol/isopropyl alcohol/water 7:7:6 v/v
Source text: as §5, §6, §7, §8

[23] = system: Proteus morganii; assay: antibacterial activity by bioautography (Table 4); type: cell-based; details: TLC with cellulose, butanol/isopropyl alcohol/water 7:7:6 v/v
Source text: as §5, §6, §7, §8

[24] = system: Salmonella typhi; assay: antibacterial activity by bioautography (Table 4); type: cell-based; details: TLC with cellulose, butanol/isopropyl alcohol/water 7:7:6 v/v
Source text: as §5, §6, §7, §8

[25] = system: Staphylococcus aureus (Oxford); assay: antibacterial activity by bioautography (Table 4); type: cell-based; details: TLC with cellulose, butanol/isopropyl alcohol/water 7:7:6 v/v
Source text: as §5, §6, §7, §8

[26] = system: Staphylococcus aureus (Russell); assay: antibacterial activity by bioautography (Table 4); type: cell-based; details: TLC with cellulose, butanol/isopropyl alcohol/water 7:7:6 v/v
Source text: as §5, §6, §7, §8

[27] = system: monoamine oxidase; assay: enzyme inhibition (not a general enzyme poison); type: biochemical; details: at concentrations in excess of those required to inhibit the β-lactamase of E. coli
[28] = system: carbonic anhydrase; assay: enzyme inhibition (not a general enzyme poison); type: biochemical; details: at concentrations in excess of those required to inhibit the β-lactamase of E. coli
[29] = system: dopa decarboxylase; assay: enzyme inhibition (not a general enzyme poison); type: biochemical; details: at concentrations in excess of those required to inhibit the β-lactamase of E. coli
[30] = system: trypsin; assay: enzyme inhibition (not a general enzyme poison); type: biochemical; details: at concentrations in excess of those required to inhibit the β-lactamase of E. coli
[31] = system: chymotrypsin; assay: enzyme inhibition (not a general enzyme poison); type: biochemical; details: at concentrations in excess of those required to inhibit the β-lactamase of E. coli
[32] = system: urease; assay: enzyme inhibition (not a general enzyme poison); type: biochemical; details: at concentrations in excess of those required to inhibit the β-lactamase of E. coli
[33] = system: Staphylococcus aureus, Bacillus subtilis, Escherichia coli, Klebsiella aerogenes, Proteus mirabilis, Acinetobacter anitratus, Serratia marcescens and Shigella …; assay: antibacterial activity (property list); type: cell-based, bacteria; details: substantially pure sodium salt
[34] = solubility; type: physicochemical; details: sodium salt
[35] = stability; type: physicochemical

With `CC(=O)N/C=C/[S+]([O-])C1=C(C(=O)O)N2C(=O)C(C(C)OS(=O)(=O)O)C2C1` (stereo not drawn) [di-sodium salt of MM 4550A] the activity ([1]; Example 3, yellowish powder (87 mg) after cellulose column) was 6,600 units/mg, the MIC [2] was 25 µg/mL and the MIC [3] was 100 µg/mL. For the same molecule, the MIC [4] was 2.5 µg/mL, the MIC [5] was 10 µg/mL and the MIC [6] was 5 µg/mL. For the same molecule, the MIC [7] was 5 µg/mL, the MIC [8] was greater than 100 µg/mL and the MIC [9] was 5 µg/mL. It also gave an MIC [10] of 20 µg/mL, an MIC [11] of 5 µg/mL and an MIC [12] of 20 µg/mL. It also gave an MIC [13] of 20 µg/mL and an MIC [14] of 100 µg/mL.

For `CC(=O)N/C=C/SC1=C(C(=O)O)N2C(=O)C(C(C)OS(=O)(=O)O)C2C1` (stereo not drawn) [MM 13902], the antibacterial activity [15] was “possesses antibacterial activity”, the “synergism when mixed with ampicillin” value [16] was “synergyses its activity” and the “Zone Diameter on Bioautography” value [17] was 15.0 mm. For the same molecule, the “Zone Diameter on Bioautography” value [18] was “No Zone”, the “Zone Diameter on Bioautography” value [19] was 13.5 mm and the “Zone Diameter on Bioautography” value [20] was 10.5 mm. The “Zone Diameter on Bioautography” value [21] was 20.0 mm, the “Zone Diameter on Bioautography” value [22] was 13.5 mm and the “Zone Diameter on Bioautography” value [23] was 9.5 mm. For the same molecule, the “Zone Diameter on Bioautography” value [24] was 21.0 mm, the “Zone Diameter on Bioautography” value [25] was 4.0 mm and the “Zone Diameter on Bioautography” value [26] was 4.0 mm.

With `CC(=O)N/C=C/[S+]([O-])C1=C(C(=O)O)N2C(=O)C(C(C)OS(=O)(=O)O)C2C1` (stereo not drawn) [MM 4550A] the “inhibition of monoamine oxidase” value [27] was “does not inhibit”, the “inhibition of carbonic anhydrase” value [28] was “does not inhibit” and the “inhibition of dopa decarboxylase” value [29] was “does not inhibit”. For the same molecule, the inhibition of trypsin [30] was “does not inhibit”, the inhibition of chymotrypsin [31] was “does not inhibit” and the inhibition of urease [32] was “does not inhibit”. The antibacterial activity [33] was “possesses antibacterial activity”, the “synergism when mixed with ampicillin” value [16] was “synergizes its activity” and the “solubility in chloroform, diethylether and hydrocarbons” value [34] was “substantially insoluble”. For the same molecule, the solubility in methanol [34] was “soluble”, the solubility in water [34] was “highly soluble” and the “stability for isolation from mixtures” value ([35]; monobasic salts and free acid) was “not sufficiently stable to isolate from mixtures”. For the same molecule, the stability ([35]; unsalted acid form) was “tends to be unstable”, the activity ([1]; Example 3, partially purified salt (2.18 g brown solid)) was 3,100 units/mg and the “Zone Diameter on Bioautography” value [17] was 24.0 mm. For the same molecule, the “Zone Diameter on Bioautography” value [18] was 6.5 mm, the “Zone Diameter on Bioautography” value [19] was 20.0 mm and the “Zone Diameter on Bioautography” value [21] was 20.0 mm. The “Zone Diameter on Bioautography” value [23] was 16.0 mm, the “Zone Diameter on Bioautography” value [24] was 19.5 mm and the “Zone Diameter on Bioautography” value [25] was 13.0 mm. For the same molecule, the “Zone Diameter on Bioautography” value [26] was 12.0 mm.
